Reference: patent US20260193242A1, “USEFUL COMPOUNDS FOR MODULATING INFLAMMATION” (FLAGSHIP PIONEERING INNOVATIONS VI, LLC, priority 2022, published 2026)

Assays:
[1] = system: TNBS-induced colitis, Balb/c mice; assay: TNBS-induced model of colitis in mice, dosing from day -1, prophylactic mode; assay type: in vivo
Procedure: Female Balb/c mice aged 8 weeks and weighing 18-20 g were housed under standard conditions. The mice were divided into groups with 8-10 mice in each group by body weight. Mice in sham group received intracolonic injection with 50% ethanol (0.1 mL) at day 0, whereas mice in other Trinitrobenzene sulfonic acid (TNBS) colitis model groups received intracolonic injection of 2% TNBS solution in ethanol (0.1 mL) at day 0. The reference compound Mesalazine (Selleck) and test articles described here were dosed from day-1 to day 6. Day 6 was the endpoint, and samples were immediately harvested for the last endpoint. Mesalazine was dissolved in distilled water (pH 7.0) and test articles were dissolved in Phosal 50 PG for delivery by oral gavage.
As noted, dosing of the compounds described herein, as well as the positive control mesalamine, began one day before TNBS administration. Animals in this scenario have not yet developed colitis symptoms before administration of test articles. For this reason, we refer to these conditions as “prophylactic mode”.
Body weight and Disease Activity Index (DAI) scores were recorded daily to assess the colitis. DAI score was the sum of the weight loss score, stool score and bleeding sub-scores. A blinded scoring system was employed to assess the colitis. The DAI scorer blinded to the group information and animal ID was responsible for the stool consistency and bleeding evaluations. If there was no blood visible with naked eyes, the Fecal occult blood (FOB) test was performed with a fecal occult blood test strip (the improved pyramidon method).
Colon tissue morphology, damage and healing were assessed by histopathology. The colons were harvested, mesentery and adipose tissue were carefully removed, and internal contents were removed by rinsing with cold PBS. The colons were Swiss-rolled and fixed in neutralized paraformaldehyde followed by H&E staining. Clinical pathologists reviewed the H&E staining and scored blinded with animal ID. The pathological scoring standards were: crypt architecture (normal, 0-severe crypt distortion with loss of entire crypts, 3), degree of inflammatory cell infiltration (normal, 0-dense inflammatory infiltrate, 3), muscle thickening (base of crypt sits on the muscularis mucosae, 0-marked muscle thickening present, 3), goblet cell depletion (absent, 0-present, 1) and crypt abscess (absent, 0-present, 1).
The plasma was collected at Day-1 for PK and cytokine (IL-1ß and IL-6) analysis by mandibular venipuncture.
The data was compared by ANOVA with post-hoc Dunnett's multiple comparisons test using Graph Pad Prism 7.0 software (San Diego, CA, USA). P-value<0.05 was considered as statistically significant difference. For pairwise comparison of histology scores and cytokines, unpaired t-test was used to calculate statistical significance. Data was expressed as mean±standard error of mean. In figures, statistical significance is denoted by asterisks: *p<0.05 **p<0.01 ***p<0.005, ****p<0.0001.

LPS-stimulated MoDC = assay: TLR4 stimulated pro-inflammatory cytokine release in primary human monocyte-derived dendritic cells; assay type: cell-based; conditions: healthy human donors D14 and D15, dose response
From the text: Monocyte derived DC (MoDC) were differentiated from healthy human donor derived CD14+ monocytes. Commercially available freshly prepared Leukopaks were obtained from healthy blood donor and kept refrigerated on ice before spin centrifuged and the pelleted cells are rinsed and resuspended with MACS buffer (Miltenyi Biotec). Next, CD14+ monocytes were purified using MultiMACS™ Cell24 Separator-Plus instrumentation and reagents according to the manufacturer (Miltenyi Biotec) instructions. The resulting purified CD14+ cell fraction was washed, enumerated, and subsequently cryopreserved for later use. At the experiment first day cryopreserved CD14+ cells were thawed, rinsed with culture media, and then resuspended in culture media principally composed of RPMI (Invitrogen) supplemented with 10% v/v heat inactivated FBS. For generation of MoDC, these CD14+ cells were enumerated and seeded into 75 cm^2 tissue culture flasks in 30 mL of culture media supplemented with GM-CSF (40-100 ng/ml) and IL-4 (25 ng/ml). Every other day, half of the culture media was replaced with fresh media (containing the same cytokine supplementation) and after 6-7 days of culture, fully differentiated and mature MoDC were obtained as confirmed by conventional Immuno-phenotype markers (levels of expression or absence of surface CD80, CD83, CD86, CD209, HLA-DR, CD14 & CD64) that were verified by flow-cytometry. Fully differentiated (mature) MoDCs, were seeded into 96 flat-well plates and incubated with various concentrations of the compounds described herein, or with control solution (DMSO), or with the pharmacologic inhibitors Cyclosporin-A (CsA) or BAY 61-3606 (which is a known inhibitor of Syk kinase) for 6 hours. Next, the cells were stimulated with Toll-like receptor agonists R848 (TLR7/8) or LPS (TLR4), and further incubated for 18-20 hours. After incubation concluded, culture supernatants were collected, and the levels of inflammatory cytokines and chemokines were measured in a triplicate setting for each condition by Luminex® multiplex assay.

[2] = system: R848-driven IRF reporter (Lucia luciferase, ISG54 promoter/IFN-stimulated response elements) in THP-1 cells; assay: TLR7/8 (R848) stimulated interferon response element reporter gene assay in THP1-Dual cells; assay type: cell-based; conditions: Homo sapiens, THP-1, 10 μM compound, 1 μM R848, THP1-Dual cells; read-out: R848-driven IRF reporter gene assay (Percent inhibition at 10 μM)
Procedure: Compounds described herein are added to the human leukemic monocyte-like cell line THP-1 for bioactivity assessment. THP1-Dual cells (InvivoGen, San Diego, CA) feature the Lucia gene, a secreted luciferase reporter gene, under the control of an ISG54 minimal promoter in conjunction with five IFN-stimulated response elements. THP1-Dual cells also express a secreted embryonic alkaline phosphatase (SEAP) reporter gene driven by an IFN-β minimal promoter fused to five copies of the NF-κB consensus transcriptional response element and three copies of the c-Rel binding site. As a result, THP1-Dual cells allow the simultaneous study of the NF-κB pathway, by monitoring the activity of SEAP, and the IRF pathway, by assessing the activity of Lucia luciferase.
THP-1 dual reporter cells were grown in RPMI 1640 culture medium with 2 mM L-glutamine, 25 mM HEPES, 10% heat-inactivated fetal bovine serum, 100 μg/ml Normocin antibiotic (InvivoGen), Pen-Strep antibiotic (100 U/ml-100 μg/ml, InvivoGen). On the day of the assay, cells were seeded in a 384 flat-bottom well plate at 25,000 cells/well and incubated for 2 hours. Cells were then incubated with 10 μM of the compounds described herein or with 1 μM of IKK-16 (Selleck), a potent inhibitor of IκB kinases (IKKs) or with DMSO (vehicle control) for 2 hours, followed by the addition of the synthetic TLR7/8 agonist R848 at 1 μM and incubation for 16 hours. After incubation was concluded, the cultures supernatants were collected and IRF related activity was assessed by measurement of the Lucia luciferase, using Quanti-Luc assay (InvivoGen). NF-κB pathway activity was assessed by quantifying SEAP using Quanti-Blue assay (InvivoGen).

[3] = 1, 3 and 10 mg/kg PO, QD, vs Vehicle group

Q: Which “body weight (% initial weight) recovery” value ([1]; 30 mg/kg, PO, QD, day -1 to day 6) does the source give for `CN1[C@@H](C(=O)O)CC[C@H]1[C@@H]1CSC(c2ccccc2O)=N1` [Compound I-4, (2R,5S)-5-((R)-2-(2-hydroxyphenyl)-4,5-dihydrothiazol-4-yl)-1-methylpyrrolidine-2-carboxylic acid] here?
A: Its value is “faster recovery rate”.

Q: And the total histology scores ([1]; 1, 3 and 10 mg/kg PO, QD)?
A: Its total histology scores is “lower”.

Q: What about the “Disease Activity Index (DAI) scores” value ([1]; 1, 3 and 10 mg/kg PO, QD, day -1 to day 6) of the same compound?
A: Its value is “dose-dependent improvement”.

Q: And the IL-1ß in plasma [1, 3]?
A: Its IL-1ß in plasma is “decreased”.

Q: And the IL-6 in plasma [1, 3]?
A: Its IL-6 in plasma is “decreased”.

Q: What about the “pathological score (crypt structure failure, inflammatory cell infiltration)” value ([1]; 1, 3 and 10 mg/kg PO, QD, H&E colon) of the same compound?
A: The value was “lower”.

Q: And the ED50 ([1]; Mus musculus, 144 h, PO, QD, day -1 to day 6, read-out: dose for half maximal effect or ED50 (DAI score at Day 6))?
A: The ED50 was 15 mg/kg.

Q: What about the “colon recovery and mucosal healing” value ([1]; in a dose-dependent manner, prophylactic mode) of the same compound?
A: The value was “promoted the colon recovery and mucosal healing”.

Q: And the IL-6 level (LPS-stimulated MoDC)?
A: Its IL-6 level is “statistically significant decrease”.

Q: What about the IL-12p70 level (LPS-stimulated MoDC) of the same compound?
A: The IL-12p70 level was “statistically significant decrease”.

Q: And the IL-23 level (LPS-stimulated MoDC)?
A: Its IL-23 level is “statistically significant decrease”.

Q: What about the TNFα level (LPS-stimulated MoDC) of the same compound?
A: Its TNFα level is “statistically significant decrease”.

Q: And the inhibition at 10 µM [2]?
A: The inhibition at 10 µM was no less than 50%.
